Test results taken from patent publication US9835558B2, “Aggregation-induced emission luminogen having an peptide sequence and its uses thereof” (priority 2015, dated 2017).
Residues, ends and D or L forms follow the SMILES beside them. *: point of attachment. X1 = O=C(COc1ccc(C(=C(c2ccccc2)c2ccccc2)c2ccccc2)cc1)*; Palmitoyl = CCCCCCCCCCCCCCCC(=O)*

Assay: cyto-toxicity by MTT assay
Assay type: cell-based
Settings: human, MCF-7 cells; TR4 0.05-50 μM, incubation for 30 min, MCF-7, data not shown; read-out: cellular viability

SMILES: CCCCCCCCCCCCCCCC(=O)NCCCC[C@H](NC(=O)COc1ccc(C(=C(c2ccccc2)c2ccccc2)c2ccccc2)cc1)C(=O)N[C@@H](CCCNC(=N)N)C(=O)N[C@@H](CCCNC(=N)N)C(=O)N[C@@H](CCCNC(=N)N)C(=O)N[C@@H](CCCNC(=N)N)C(N)=O [TR4] (X1-K(Palmitoyl)RRRR-NH2)
- viability at 0.5 h: > 80%
